Test results from ChEMBL document CHEMBL1201862, “PubChem BioAssay data set” (2004).
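Test compounds were applied to cells in 96-well plates for 48 hours at 5 doses. GI50 = concentration required for 50% inhibition of growth.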 Activity calls are given as the source filed them. Cut-off read from the data, not from the text of the source: active = GI50 up to about 1.1 µM and inactive = higher.

Tests used:
Assay in all cases: NCI anticancer screen, dose series, 48 h
786-0 = tested on: 786-0
A498 = tested on: A498
A549 = tested on: A549
ACHN = tested on: ACHN
CAKI-1 = tested on: CAKI-1
CCRF-CEM = tested on: CCRF-CEM
COLO 205 = tested on: COLO 205
DLD-1 = tested on: DLD-1
DMS-114 = tested on: DMS-114
DMS-273 = tested on: DMS-273
EKVX = tested on: EKVX
HCC 2998 = tested on: HCC 2998
HCT-116 = tested on: HCT-116
HCT-15 = tested on: HCT-15
HOP-62 = tested on: HOP-62
HOP-92 = tested on: HOP-92
HT-29 = tested on: HT-29
IGROV-1 = tested on: IGROV-1
K562 = tested on: K562
KM-20L2 = tested on: KM-20L2
KM12 = tested on: KM12
LOX IMVI = tested on: LOX IMVI
LXFL 529 = tested on: LXFL 529
M14 = tested on: M14
M19-MEL = tested on: M19-MEL
MOLT-4 = tested on: MOLT-4
NCI-H226 = tested on: NCI-H226
NCI-H23 = tested on: NCI-H23
NCI-H460 = tested on: NCI-H460
NCI-H522 = tested on: NCI-H522
OVCAR-3 = tested on: OVCAR-3
OVCAR-4 = tested on: OVCAR-4
OVCAR-5 = tested on: OVCAR-5
OVCAR-8 = tested on: OVCAR-8
RPMI-8226 = tested on: RPMI-8226
RXF 393 = tested on: RXF 393
SF-268 = tested on: SF-268
SF-295 = tested on: SF-295
SF-539 = tested on: SF-539
SK-MEL-28 = tested on: SK-MEL-28
SK-MEL-2 = tested on: SK-MEL-2
SK-OV-3 = tested on: SK-OV-3
SN12C = tested on: SN12C
SNB-19 = tested on: SNB-19
SNB-75 = tested on: SNB-75
SNB-78 = tested on: SNB-78
SR = tested on: SR
SW-620 = tested on: SW-620
TK-10 = tested on: TK-10
U-251 = tested on: U-251
UACC-257 = tested on: UACC-257
UACC-62 = tested on: UACC-62
UO-31 = tested on: UO-31
HL-60 = tested on: HL-60
HOP-18 = tested on: HOP-18
Malme-3M = tested on: Malme-3M
SK-MEL-5 = tested on: SK-MEL-5
XF498 = tested on: XF498

## O=C1c2ccc(O)c(O)c2C(=O)c2c(O)ccc(O)c21 [QUINALIZARIN]
786-0
  GI50: 26.3 µM (inactive)
A498
  GI50: 26.3 µM (inactive)
A549
  GI50: 21.1 µM (inactive)
ACHN
  GI50: 23 µM (inactive)
CAKI-1
  GI50: 6.05 µM (inactive)
CCRF-CEM
  GI50: 20.2 µM (inactive)
COLO 205
  GI50: 22.2 µM (inactive)
DLD-1
  GI50: 32.5 µM (inactive)
DMS-114
  GI50: 15.9 µM (inactive)
DMS-273
  GI50: 25.2 µM (inactive)
EKVX
  GI50: 26.9 µM (inactive)
HCC 2998
  GI50: 23.3 µM (inactive)
HCT-116
  GI50: 20.6 µM (inactive)
HCT-15
  GI50: 25.7 µM
HOP-62
  GI50: 26.8 µM (inactive)
HOP-92
  GI50: 25.4 µM (inactive)
HT-29
  GI50: 35.2 µM (inactive)
IGROV-1
  GI50: 38.4 µM (inactive)
K562
  GI50: 26.5 µM (inactive)
KM-20L2
  GI50: 25.4 µM (inactive)
KM12
  GI50: 30.9 µM (inactive)
LOX IMVI
  GI50: 18.2 µM (inactive)
LXFL 529
  GI50: 27.5 µM (inactive)
M14
  GI50: 21.5 µM (inactive)
M19-MEL
  GI50: 33.9 µM (inactive)
MOLT-4
  GI50: 23.1 µM (inactive)
NCI-H226
  GI50: 22 µM (inactive)
NCI-H23
  GI50: 31.6 µM (inactive)
NCI-H460
  GI50: 21.2 µM (inactive)
NCI-H522
  GI50: 1.45 µM (inactive)
OVCAR-3
  GI50: 20.3 µM (inactive)
OVCAR-4
  GI50: 2.1 µM (inactive)
OVCAR-5
  GI50: 28.4 µM (inactive)
OVCAR-8
  GI50: 28.1 µM (inactive)
RPMI-8226
  GI50: 28.2 µM (inactive)
RXF 393
  GI50: 26.1 µM (inactive)
SF-268
  GI50: 26.6 µM (inactive)
SF-295
  GI50: 27.1 µM (inactive)
SF-539
  GI50: 21.4 µM (inactive)
SK-MEL-28
  GI50: 56 µM (inactive)
SK-MEL-2
  GI50: 25.7 µM (inactive)
SK-OV-3
  GI50: 29.7 µM (inactive)
SN12C
  GI50: 24 µM (inactive)
SNB-19
  GI50: 29 µM (inactive)
SNB-75
  GI50: > 10 µM (inactive)
SNB-78
  GI50: 41.3 µM (inactive)
SR
  GI50: 26.5 µM (inactive)
SW-620
  GI50: 28.2 µM (inactive)
TK-10
  GI50: 33.8 µM (inactive)
U-251
  GI50: 34.2 µM (inactive)
UACC-257
  GI50: 20.5 µM (inactive)
UACC-62
  GI50: 21.4 µM (inactive)
UO-31
  GI50: 21.3 µM (inactive)

## Cc1cc(O)nc(NNC(C#N)c2ccc(N(C)C)cc2)n1 (stereo unspecified)
786-0
  GI50: > 100 µM (inactive)
A549
  GI50: > 100 µM (inactive)
ACHN
  GI50: > 100 µM (inactive)
CAKI-1
  GI50: > 100 µM (inactive)
CCRF-CEM
  GI50: > 100 µM (inactive)
COLO 205
  GI50: > 100 µM (inactive)
DLD-1
  GI50: > 100 µM (inactive)
DMS-114
  GI50: > 100 µM (inactive)
DMS-273
  GI50: > 100 µM (inactive)
HCT-116
  GI50: > 100 µM (inactive)
HCT-15
  GI50: > 100 µM
HL-60
  GI50: > 100 µM (inactive)
HOP-18
  GI50: > 100 µM (inactive)
HOP-62
  GI50: > 100 µM (inactive)
HOP-92
  GI50: > 100 µM (inactive)
HT-29
  GI50: > 100 µM (inactive)
IGROV-1
  GI50: > 100 µM (inactive)
K562
  GI50: > 100 µM (inactive)
KM-20L2
  GI50: > 100 µM (inactive)
KM12
  GI50: > 100 µM (inactive)
LOX IMVI
  GI50: > 100 µM (inactive)
M14
  GI50: > 100 µM (inactive)
M19-MEL
  GI50: > 100 µM (inactive)
Malme-3M
  GI50: > 100 µM (inactive)
NCI-H226
  GI50: > 100 µM (inactive)
NCI-H23
  GI50: > 100 µM (inactive)
NCI-H460
  GI50: > 100 µM (inactive)
NCI-H522
  GI50: > 100 µM (inactive)
OVCAR-3
  GI50: > 100 µM (inactive)
OVCAR-4
  GI50: > 100 µM (inactive)
OVCAR-5
  GI50: > 100 µM (inactive)
OVCAR-8
  GI50: > 100 µM (inactive)
RPMI-8226
  GI50: > 100 µM (inactive)
RXF 393
  GI50: > 100 µM (inactive)
SF-268
  GI50: > 100 µM (inactive)
SF-295
  GI50: > 100 µM (inactive)
SF-539
  GI50: > 100 µM (inactive)
SK-MEL-28
  GI50: > 100 µM (inactive)
SK-MEL-2
  GI50: > 100 µM (inactive)
SK-MEL-5
  GI50: > 100 µM (inactive)
SK-OV-3
  GI50: > 100 µM (inactive)
SN12C
  GI50: > 100 µM (inactive)
SNB-75
  GI50: > 100 µM (inactive)
SNB-78
  GI50: > 100 µM (inactive)
SR
  GI50: 92.9 µM (inactive)
SW-620
  GI50: > 100 µM (inactive)
TK-10
  GI50: > 100 µM (inactive)
U-251
  GI50: > 100 µM (inactive)
UACC-257
  GI50: > 100 µM (inactive)
UACC-62
  GI50: > 100 µM (inactive)
UO-31
  GI50: > 100 µM (inactive)

## Cc1cccc(C)c1NC(=O)CCCC(=O)C1CC(=O)CCC1=O (stereo unspecified)
786-0
  GI50: > 100 µM (inactive)
A498
  GI50: > 100 µM (inactive)
ACHN
  GI50: > 100 µM (inactive)
DLD-1
  GI50: > 100 µM (inactive)
DMS-114
  GI50: > 100 µM (inactive)
EKVX
  GI50: > 100 µM (inactive)
HCC 2998
  GI50: > 100 µM (inactive)
HCT-116
  GI50: > 100 µM (inactive)
HCT-15
  GI50: > 100 µM
HOP-62
  GI50: > 100 µM (inactive)
HT-29
  GI50: > 100 µM (inactive)
KM-20L2
  GI50: > 100 µM (inactive)
M19-MEL
  GI50: > 100 µM (inactive)
MOLT-4
  GI50: > 100 µM (inactive)
Malme-3M
  GI50: > 100 µM (inactive)
NCI-H226
  GI50: > 100 µM (inactive)
NCI-H23
  GI50: > 100 µM (inactive)
NCI-H522
  GI50: > 100 µM (inactive)
OVCAR-3
  GI50: > 100 µM (inactive)
OVCAR-4
  GI50: > 100 µM (inactive)
OVCAR-8
  GI50: > 100 µM (inactive)
RPMI-8226
  GI50: > 100 µM (inactive)
RXF 393
  GI50: > 100 µM (inactive)
SF-268
  GI50: > 100 µM (inactive)
SF-539
  GI50: > 100 µM (inactive)
SK-MEL-28
  GI50: > 100 µM (inactive)
SK-OV-3
  GI50: > 100 µM (inactive)
SN12C
  GI50: > 100 µM (inactive)
SNB-19
  GI50: > 100 µM (inactive)
SNB-75
  GI50: > 100 µM (inactive)
SNB-78
  GI50: > 100 µM (inactive)
SR
  GI50: > 100 µM (inactive)
U-251
  GI50: > 100 µM (inactive)
UACC-257
  GI50: > 100 µM (inactive)
UACC-62
  GI50: > 100 µM (inactive)
UO-31
  GI50: > 100 µM (inactive)
XF498
  GI50: > 100 µM (inactive)
